Data: PMC5613062 (Investigational New Drugs, 2017)
Where two headings read alike, the source gives them in different places. Marks after values point to notes of the source that are not given here.

Legend:
[1] = test system: SW620 human colorectal cancer xenograft; design: method as in earlier work; settings: ref IB, cited from earlier work
[2] = test system: Calu-6 human non-small cell lung cancer xenograft; design: method as in earlier work; settings: AZD6244 3 mg/kg BD; AZD2171 […] QD; ref IB; cited from earlier work
[3] = cited from earlier work
[4] = design: method as in earlier work; settings: twice-daily oral dosing in SBE-CD, monkeys; no notable gastrointestinal tract or renal pathology; ref IB; cited from earlier work
[5] = ref Study D1532C00005, cited from earlier work
[6] = design: method as in product label; settings: ref product label, cited from earlier work
[7] = test system: HCT-116 human colorectal cancer xenograft; design: method as in earlier work; settings: AZD6244 25 m/kg BD; docetaxel 15 mg/kg once weekly; ref IB; cited from earlier work
[8] = Pharmacokinetics alone and in combination, selumetinib + erlotinib arm
Description: (§1) PK parameters were derived using non-compartmental analysis. Cmax and tmax were determined by visual inspection of the plasma concentration-time profiles. AUC(0–12) was calculated by the linear trapezoidal rule. Where more than one maximum occurred, the reported value was assigned to the first occurrence.

[9] = design: method as in product label; settings: ref product label, cited from earlier work; remark: listed apart in the source
[10] = Pharmacokinetics alone and in combination, selumetinib + temsirolimus arm; type: in vivo, human; settings: human, plasma, iv; for AUC(0-t) / AUC(0–12) / Cmax: geometric mean (% CV); for AUC(0-t): read-out: AUC(0–8); for AUC(0–12): read-out: AUC(0–12); for Cmax: read-out: Cmax; for tmax: median (range), read-out: tmax
Description: as §1

[11] = test system: Lovo colorectal cancer xenograft; design: method as in earlier work; settings: rapamycin experiment, usual monotherapy schedules, doses not given; ref IB; cited from earlier work
[12] = AZD6244 25 mg/kg BD, irinotecan 25 mg/kg once weekly, docetaxel 15 mg/kg once weekly
[13] = geometric mean, QD cohorts, dosed alone, selumetinib 150 mg cohort (N = 13), erlotinib 100 mg QD
[14] = NSCLC patients, single-agent erlotinib 150 mg
[15] = dosed alone, selumetinib 50 mg cohort (N = 25), temsirolimus 25 mg IV
[16] = dosed alone, selumetinib 75 mg cohort (N = 6), temsirolimus 25 mg IV
[17] = dosed in combination, selumetinib 50 mg BID (N = 22) + temsirolimus 25 mg IV
[18] = dosed in combination, selumetinib 75 mg BID (N = 5) + temsirolimus 25 mg IV

Compound: Cn1nnc2c(C(N)=O)ncn2c1=O [Temozolamide]
- Tumor growth inhibition as a % of control ([1]; temozolamide experiment, usual monotherapy schedules, doses not given): 15 % of control

Compound: CCc1c2c(nc3ccc(OC(=O)N4CCC(N5CCCCC5)CC4)cc13)-c1cc3c(c(=O)n1C2)COC(=O)[C@]3(O)CC [Irinotecan]
- Tumor growth inhibition as a % of control [1, 12]: 67 % of control

Compound: COc1cc2c(Oc3ccc4[nH]c(C)cc4c3F)ncnc2cc1OCCCN1CCCC1 [AZD2171, reference compound]
- Tumor growth inhibition as a % of control [2]: 49.6 % of control

Compound: Cn1cnc2c(F)c(Nc3ccc(Br)cc3Cl)c(C(=O)NOCCO)cc21 [AZD6244 Hyd-Sulfate]
- toxicity findings, 6-month study ([3]; male mice dosed 8–15 weeks at the high dose level, ref IB): dilation of the corpus spongiosum
- tissue mineralization ([3]; mice dosed for up to one month, ref IB): multiple tissues (cornea, kidney, liver, myocardium, skeletal muscle, glandular stomach)
- toxicity findings at non-tolerated dose levels ([3]; mouse, in vivo, po): gastrointestinal tract toxicity and hematopoietic atrophy
- toxicity findings [4]: fluid and/or red colored feces
- DLT in the first 22 days of dosing ([5]; 75 mg BD cohort, one DLT): CTCAE Grade 3 fatigue
- DLTs in the first 22 days of dosing ([5]; 100mg BD cohort, two DLTs): pleural effusion and rash (both CTC AE Grade 3)
- maximum tolerated dose ([5]; capsule formulation): 75 mg BD

Compound: CC(=O)O[C@@]12CO[C@@H]1C[C@H](O)[C@@]1(C)C(=O)[C@H](O)C3=C(C)[C@@H](OC(=O)[C@H](O)[C@@H](NC(=O)OC(C)(C)C)c4ccccc4)C[C@@](O)([C@@H](OC(=O)c4ccccc4)[C@H]21)C3(C)C [Docetaxel]
- severe neurosensory symptoms (paresthesia, dysesthesia, pain) ([6]; 53/965 metastatic breast cancer patients): 5.5%
- treatment discontinuation due to severe neurosensory symptoms ([6]; metastatic breast cancer patients): 6.1%
- Tumor growth inhibition as a % of control [7]: 93.4 % of control
- Tumor growth inhibition as a % of control [1, 12]: 12 % of control

Compound: C#Cc1cccc(Nc2ncnc3cc(OCCOC)c(OCCOC)cc23)c1 [Erlotinib, reference compound]
- Cmax ([8]; geometric mean (% CV), dosed alone, selumetinib 50 mg cohort (N = 14), erlotinib 100 mg QD): 1681 (27.13) [13] ng/mL
- Cmax ([8]; geometric mean (% CV), dosed in combination, selumetinib 50 mg BID (N = 12) + erlotinib 100 mg QD): 1725 (30.11) ng/mL
- Cmax ([8]; geometric mean (% CV), dosed in combination, selumetinib 75 mg BID (N = 6) + erlotinib 100 mg QD): 1739 (39.86) ng/mL
- Cmax ([8]; geometric mean, QD cohorts, dosed alone, selumetinib 100 mg cohort (N = 6), erlotinib 100 mg QD): 1180 ng/mL
- AUC(0–8) [8, 13]: 12,710^c ng•h/mL
- Cmax [8, 13]: 1980^c ng/mL
- Cmax ([8]; geometric mean, QD cohorts, in combination, selumetinib 50 mg (N = 6) + erlotinib 100 mg QD): 1468^d ng/mL
- tmax ([8]; human, plasma, oral): 1.5 h
- tmax ([8]; human, plasma, oral, 100 mg): 1.5 h
- AUC(0-t) ([8]; human, plasma, oral, 100 mg, AUC(0–8), geometric mean, QD cohorts, dosed alone, selumetinib 100 mg cohort (N = 6), erlotinib 100 mg QD): 7100 ng·h/mL
- AUC(0-t) ([8]; human, plasma, oral, 100 mg, AUC(0–12), geometric mean, QD cohorts, dosed alone, selumetinib 100 mg cohort (N = 6), erlotinib 100 mg QD): 10300 ng·h/mL
- AUC(0-t) ([8]; human, plasma, oral, AUC(0–8), geometric mean (% CV), dosed alone, selumetinib 50 mg cohort (N = 14), erlotinib 100 mg QD): 10100 ng·h/mL
- AUC(0-t) ([8]; human, plasma, oral, AUC(0–8), geometric mean (% CV), dosed alone, selumetinib 75 mg cohort (N = 6), erlotinib 100 mg QD): 9590 ng·h/mL
- AUC(0-t) ([8]; human, plasma, oral, AUC(0–8), geometric mean (% CV), dosed in combination, selumetinib 50 mg BID (N = 12) + erlotinib 100 mg QD): 10400 ng·h/mL
- AUC(0-t) ([8]; human, plasma, oral, AUC(0–8), geometric mean (% CV), dosed in combination, selumetinib 75 mg BID (N = 6) + erlotinib 100 mg QD): 10400 ng·h/mL
- AUC(0-t) ([8]; human, plasma, oral, AUC(0–8), geometric mean, QD cohorts, dosed alone, selumetinib 50 mg cohort (N = 7), erlotinib 100 mg QD): 9620 ng·h/mL
- AUC(0-t) ([8]; human, plasma, oral, AUC(0–8), geometric mean, QD cohorts, in combination, selumetinib 50 mg (N = 6) + erlotinib 100 mg QD): 8600 ng·h/mL
- AUC(0-t) ([8]; human, plasma, oral, AUC(0–8), geometric mean, QD cohorts, in combination, selumetinib 100 mg (N = 6) + erlotinib 100 mg QD): 8500 ng·h/mL
- AUC(0-t) ([8]; human, plasma, oral, AUC(0–8), geometric mean, QD cohorts, in combination, selumetinib 150 mg (N = 12) + erlotinib 100 mg QD): 13000 ng·h/mL
- AUC(0-t) ([8]; human, plasma, oral, AUC(0–12), geometric mean (% CV), dosed alone, selumetinib 50 mg cohort (N = 14), erlotinib 100 mg QD): 14500 ng·h/mL
- AUC(0-t) ([8]; human, plasma, oral, AUC(0–12), geometric mean (% CV), dosed alone, selumetinib 75 mg cohort (N = 6), erlotinib 100 mg QD): 13800 ng·h/mL
- AUC(0-t) ([8]; human, plasma, oral, AUC(0–12), geometric mean (% CV), dosed in combination, selumetinib 50 mg BID (N = 12) + erlotinib 100 mg QD): 14700 ng·h/mL
- AUC(0-t) ([8]; human, plasma, oral, AUC(0–12), geometric mean (% CV), dosed in combination, selumetinib 75 mg BID (N = 6) + erlotinib 100 mg QD): 14700 ng·h/mL
- AUC(0-t) ([8]; human, plasma, oral, AUC(0–12), geometric mean, QD cohorts, dosed alone, selumetinib 50 mg cohort (N = 7), erlotinib 100 mg QD): 14000 ng·h/mL
- AUC(0-t) ([8]; human, plasma, oral, AUC(0–12), geometric mean, QD cohorts, dosed alone, selumetinib 150 mg cohort (N = 13), erlotinib 100 mg QD): 18300 ng·h/mL
- AUC(0-t) ([8]; human, plasma, oral, AUC(0–12), geometric mean, QD cohorts, in combination, selumetinib 100 mg (N = 6) + erlotinib 100 mg QD): 12000 ng·h/mL
- AUC(0-t) ([8]; human, plasma, oral, AUC(0–12), geometric mean, QD cohorts, in combination, selumetinib 150 mg (N = 12) + erlotinib 100 mg QD): 18600 ng·h/mL
- Cmax ([8]; human, plasma, oral, Cmax, geometric mean (% CV), dosed alone, selumetinib 75 mg cohort (N = 6), erlotinib 100 mg QD): 1420 ng/mL
- Cmax ([8]; human, plasma, oral, Cmax, geometric mean, QD cohorts, dosed alone, selumetinib 50 mg cohort (N = 7), erlotinib 100 mg QD): 1620 ng/mL
- Cmax ([8]; human, plasma, oral, Cmax, geometric mean, QD cohorts, in combination, selumetinib 100 mg (N = 6) + erlotinib 100 mg QD): 1430 ng/mL
- Cmax ([8]; human, plasma, oral, Cmax, geometric mean, QD cohorts, in combination, selumetinib 150 mg (N = 12) + erlotinib 100 mg QD): 2030 ng/mL
- tmax ([8]; median (range), QD cohorts, dosed alone, selumetinib 150 mg cohort (N = 13), erlotinib 100 mg QD): 2.00 (1.00–6.00)^c h
- tmax ([8]; median (range), QD cohorts, in combination, selumetinib 50 mg (N = 6) + erlotinib 100 mg QD): 4.00 (1.00–8.00)^d h
- tmax ([8]; median (range), dosed alone, selumetinib 75 mg cohort (N = 6), erlotinib 100 mg QD): 3.0 (2.0–6.0) h
- PK parameters when administered alone and in combination ([8]; selumetinib + erlotinib arm): similar
- Grade 3/4 diarrhea [9, 14]: 6%
- Grade 3/4 rash [9, 14]: 9%
- median time to onset of diarrhea [9, 14]: 12 days
- median time to onset of rash [9, 14]: 8 days
- patients needing dose reduction for diarrhea [9, 14]: 1%
- patients needing dose reduction for rash [9, 14]: Six
- study discontinuation due to diarrhea [9, 14]: 1%
- study discontinuation due to rash [9, 14]: 1%
- median time to start of ILD-like symptoms after initiating therapy ([9]; range 5 days to more than 9 months): 39 days

Compound: CO[C@H]1C[C@@H]2CC[C@@H](C)[C@@](O)(O2)C(=O)C(=O)N2CCCC[C@H]2C(=O)O[C@H]([C@H](C)C[C@@H]2CC[C@@H](O)[C@H](OC)C2)CC(=O)[C@H](C)/C=C(\C)[C@@H](O)[C@@H](OC)C(=O)[C@H](C)C[C@H](C)/C=C/C=C/C=C/1C [Sirolimus]
- AUC(0-t) [10, 15]: 341 ng·h/mL
- AUC(0–12) [10, 15]: 514 ng·h/mL
- Cmax [10, 15]: 58.5 ng/mL
- AUC(0-t) [10, 16]: 266 ng·h/mL
- AUC(0–12) [10, 16]: 382 ng·h/mL
- Cmax [10, 16]: 49.5 ng/mL
- AUC(0-t) [10, 17]: 394 ng·h/mL
- AUC(0–12) [10, 17]: 584 ng·h/mL
- Cmax [10, 17]: 67 ng/mL
- AUC(0-t) [10, 18]: 292 ng·h/mL
- AUC(0–12) [10, 18]: 360 ng·h/mL
- Cmax [10, 18]: 51.2 ng/mL
- tmax [10, 15]: 1.5 h
- tmax [10, 16]: 2 h
- tmax [10, 17]: 1.5 h
- tmax [10, 18]: 2 h
- Tumor growth inhibition as a % of control [11]: 38 % of control
